pKd: −log10 of the molar value.
Experiments:
[1] = Binding affinity to HT3AGTA sequence of bulge DNA by fluorescence quenching
[2] = Binding affinity to HT3AGTT sequence of bulge DNA by fluorescence quenching
[3] = Binding affinity to DA12:BA14 sequence of bulge DNA by fluorescence quenching
HT4AGTT bulged DNA = assay: Binding affinity to HT4AGTT sequence of bulge DNA by fluorescence quenching
[4] = Binding affinity to HT3AGCTT sequence of bulge DNA by fluorescence quenching
[5] = Binding affinity to HT3AGT sequence of bulge DNA by fluorescence quenching
[6] = Binding affinity to HT3AT sequence of bulge DNA by fluorescence quenching
Nucleic Acid = assay: Binding affinity to DA12:DAc12 oligomer sequence of bulge DNA by fluorescence quenching; format: nucleic-acid assay

In the case of CN[C@H]1[C@H](O[C@H]2c3cc4ccccc4cc3[C@H]3[C@@H]2C=C[C@]32C(=O)C=Cc3ccc(OC)cc32)O[C@H](C)[C@H](O)[C@@H]1O, the pKd [1] was 6.41, the pKd [2] was 6.70 and the pKd [3] was 6.40. The pKd (HT4AGTT bulged DNA) was 6.72, the pKd [4] was 5.74 and the pKd [5] was 4.85. For the same compound, the pKd [6] was 5.09.
In the case of CN[C@H]1[C@@H](O[C@@H]2c3cc4ccccc4cc3[C@@H]3[C@H]2C=C[C@@]32C(=O)C=Cc3ccc(OC)cc32)O[C@H](C)[C@H](O)[C@@H]1O, the pKd [1] was 5.85, the pKd [2] was 6.89 and the pKd [3] was 6.10. It also gave a pKd (HT4AGTT bulged DNA) of 6.62, a pKd [4] of 5.77 and a pKd [5] of 5.39. The pKd [6] was 4.89.
Compound CN[C@H]1[C@H](O[C@@H]2c3cc4c(cc3[C@@H]3[C@H]2OC(=O)[C@@]32C(=O)C=Cc3c(C)cc(OC)cc32)[C@@](O)([C@H]2COC(=O)O2)C=C4)O[C@@H](C)[C@H](O)[C@@H]1O has a pKd [1] of 4.90, a pKd [2] of 7.48 and a pKd [3] of 5.66. It also gave a pKd (HT4AGTT bulged DNA) of 7.59, a pKd [4] of 6.15 and a pKd [5] of 4.69. For the same compound, the pKd (Nucleic Acid) was 3.51 and the pKd [6] was 5.00.
For CN[C@H]1[C@H](O[C@@H]2c3cc4ccccc4cc3[C@@H]3[C@H]2C=C[C@@]32C(=O)C=Cc3ccc(OC)cc32)O[C@H](C)[C@H](O)[C@@H]1O, the pKd [1] was 6.36, the pKd [2] was 5.80 and the pKd [3] was 6.37. For the same compound, the pKd (HT4AGTT bulged DNA) was 5.82, the pKd [4] was 5.71 and the pKd [5] was 5.26. The pKd [6] was 5.04.
In the case of CN[C@H]1[C@@H](O[C@H]2c3cc4ccccc4cc3[C@H]3[C@@H]2C=C[C@]32C(=O)C=Cc3ccc(OC)cc32)O[C@H](C)[C@H](O)[C@@H]1O, the pKd [1] was 6.66, the pKd [2] was 7.10 and the pKd [3] was 6.22. It also gave a pKd (HT4AGTT bulged DNA) of 6.96, a pKd [4] of 5.68 and a pKd [5] of 5.08. The pKd [6] was 5.00.
